Measurements reported in US20080200376A1, “Compositions and Methods For the Treatment Of Obesity and Sexual Dysfunction” (priority 2004, published 2008).
Marks after values point to notes of the source that are not given here.

Columns and labels:
ferrets [1] = test: MC4R associated emesis in ferrets, Compound A and Compound B (Table 1); format: in vivo, ferret; settings: Compound A 60 mg/kg orally; for % Emesis: ferrets; for # of Ferrets: ferrets with emesis/dosed
Protocol: (§1) Food intake (FI) was monitored at 1, 2, 4, and 24, hours after dosing. Body weight (BWT) was measured at the time of dosing and at 24 hours. Any incidence of emesis or abnormal behavior by subjects was recorded. Two studies were combined to generate the data.

hMC5R [2] = target: T1, hMC5R (Homo sapiens, UniProt P33032); test: cAMP functional assay (agonist); format: cell-based
T1 construct: expressed in transfected cells; host or cells: CHO-, L- or other eukaryotic cells
T1 sequence (P33032 whole entry): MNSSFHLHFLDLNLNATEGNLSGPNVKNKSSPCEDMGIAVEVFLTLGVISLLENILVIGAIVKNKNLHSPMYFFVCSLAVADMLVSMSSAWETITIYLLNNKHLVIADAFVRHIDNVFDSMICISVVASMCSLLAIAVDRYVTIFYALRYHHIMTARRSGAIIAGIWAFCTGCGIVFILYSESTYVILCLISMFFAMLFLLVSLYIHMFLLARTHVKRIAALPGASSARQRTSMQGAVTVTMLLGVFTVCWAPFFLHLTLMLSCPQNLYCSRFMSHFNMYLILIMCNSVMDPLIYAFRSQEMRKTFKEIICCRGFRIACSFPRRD
Protocol: (§2) Cells (for example, CHO— or L-cells or other eukaryotic cells) expressing a human melanocortin receptor (see e.g. Yang-YK; Ollmann-MM; Wilson-BD; Dickinson-C; Yamada-T; Barsh-GS; Gantz-I; Mol-Endocrinol. 1997 March; 11(3): 274-80) were dissociated from tissue culture flasks by rinsing with Ca and Mg free phosphate buffered saline (14190-136, Life Technologies, Gaithersburg, Md.) and detached following 5 min incubation at 37° C. with enzyme free dissociation buffer (S-014-B, Specialty Media, Lavellette, N.J.). Cells were collected by centrifugation and resuspended in Earle's Balanced Salt Solution (14015-069, Life Technologies, Gaithersburg, Md.) with additions of 10 mM HEPES pH 7.5, 5 mM MgCl2, 1 mM glutamine and 1 mg/ml bovine serum albumin. Cells were counted and diluted to 1 to 5×10^6/mL. The phosphodiesterase inhibitor 3-isobutyl-1-methylxanthine was added to cells to 0.6 mM.
(§3) Agonist Assay: Test compounds were diluted in dimethylsulfoxide (DMSO) (10^−5 to 10^−10 M) and 0.1 volume of compound solution was added to 0.9 volumes of cell suspension; the final DMSO concentration was […]. After room temperature incubation for 45 min, cells were lysed by incubation at 100° C. for 5 min to release accumulated cAMP.
(§4) cAMP was measured in an aliquot of the cell lysate with the Amersham (Arlington Heights, Ill.)

hMC3R [3] = target: T2, hMC3R (Homo sapiens, UniProt P41968); test: cAMP functional assay (agonist); format: cell-based
T2 construct: expressed in transfected cells; host or cells: CHO-, L- or other eukaryotic cells
T2 sequence (P41968 whole entry): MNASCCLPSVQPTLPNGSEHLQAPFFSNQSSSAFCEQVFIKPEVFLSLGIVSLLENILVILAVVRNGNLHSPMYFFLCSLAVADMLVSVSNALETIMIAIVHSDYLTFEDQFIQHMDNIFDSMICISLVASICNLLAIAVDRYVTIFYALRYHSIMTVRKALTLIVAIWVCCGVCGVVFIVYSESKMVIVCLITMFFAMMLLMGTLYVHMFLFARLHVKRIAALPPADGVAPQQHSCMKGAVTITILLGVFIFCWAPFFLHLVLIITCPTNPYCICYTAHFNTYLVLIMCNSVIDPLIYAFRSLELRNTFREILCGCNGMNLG
Protocol: as §2, §3, §4

hMC3R [4] = target: T2, hMC3R; test: Melanocortin receptor membrane binding assay (125I-NDP-alpha-MSH)
Protocol: The cells were grown at 37° C. with CO2 and humidity control until the desired cell density and cell number was obtained.

hMC5R [5] = target: T1, hMC5R; test: as above
Protocol: (§5) The membrane binding assay was used to identify competitive inhibitors of ^125I-NDP-alpha-MSH binding to cloned human MCRs expressed in mouse L- or Chinese hamster ovary (CHO)-cells.
(§6) Cell lines expressing melanocortin receptors were grown in T-180 flasks containing selective medium of the composition: 1 L Dulbecco's modified Eagles Medium (DMEM) with 4.5 g […], 25 mM Hepes, without sodium pyruvate, (Gibco/BR1); 100 ml 10% heat-inactivated fetal bovine serum (Sigma); 10 mL 10,000 unit/mL penicillin & 10,000 μg/mL streptomycin (Gibco/BR1); 10 ml 200 mM L-glutamine (Gibco/BR1); 1 mg/mL geneticin (G418) (Gibco/BR1). The cells were grown at 37° C. with CO2 and humidity control until the desired cell density and cell number was obtained.
(§7) The medium was poured off and 10 mls/T-180 flask of enzyme-free dissociation media (Specialty Media Inc.) was added. The cells were incubated at 37° C. for 10 min or until cells sloughed off when flask was banged against hand.
(§8) The cells were harvested into 200 mL centrifuge tubes and spun at 1000 rpm, 4° C., for 10 min. The supernatant was discarded and the cells were resuspended in 5 mls/monolayer membrane preparation buffer having the composition: 10 mM Tris pH 7.2-7.4; 4 μg/mL Leupeptin (Sigma); 10 μM Phosphoramidon (Boehringer Mannheim); 40 μg/mL Bacitracin (Sigma); 5 μg/mL Aprotinin (Sigma); 10 mM Pefabloc (Boehringer Mannheim). The cells were homogenized with motor-driven dounce (Talboy setting 40), using 10 strokes and the homogenate centrifuged at 6,000 rpm, 4° C., for 15 min.
(§9) The pellets were resuspended in 0.2 mls/monolayer membrane prep buffer and aliquots were placed in tubes ([…]) and quick frozen in liquid nitrogen and then stored at −80° C.
(§10) Test compounds or unlabelled NDP-α-MSH was added to 100 μL of membrane binding buffer to a final concentration of 1 μM. The membrane binding buffer had the composition: 50 mM Tris pH 7.2; 2 mM CaCl2; 1 mM MgCl2; 5 mM KCl; 0.2% BSA; 4 μg/mL Leupeptin (SIGMA); 10 μM Phosphoramidon (Boehringer Mannheim); 40 μg/mL Bacitracin (SIGMA); 5 μg/mL Aprotinin (SIGMA); and 10 mM Pefabloc (Boehringer Mannheim). One hundred μL of membrane binding buffer containing 10-40 μg membrane protein was added, followed by […]. The resulting mixture was vortexed briefly and incubated for 90-120 min at room temp while shaking.
(§11) The mixture was filtered with Packard Microplate 196 filter apparatus using Packard Unifilter 96-well GF/C filter with 0.1% polyethyleneimine (Sigma). The filter was washed (5 times with a total of 10 mL per well) with room temperature of filter wash having the composition: 50 mM Tris-HCl pH 7.2 and 20 mM NaCl. […] The top was sealed and the radioactivity quantitated in a Packard Topcount Microplate Scintillation counter.

hMC1bR [6] = target: T3, hMC1bR (Homo sapiens, UniProt Q01726); test: as above
T3 sequence (Q01726 whole entry): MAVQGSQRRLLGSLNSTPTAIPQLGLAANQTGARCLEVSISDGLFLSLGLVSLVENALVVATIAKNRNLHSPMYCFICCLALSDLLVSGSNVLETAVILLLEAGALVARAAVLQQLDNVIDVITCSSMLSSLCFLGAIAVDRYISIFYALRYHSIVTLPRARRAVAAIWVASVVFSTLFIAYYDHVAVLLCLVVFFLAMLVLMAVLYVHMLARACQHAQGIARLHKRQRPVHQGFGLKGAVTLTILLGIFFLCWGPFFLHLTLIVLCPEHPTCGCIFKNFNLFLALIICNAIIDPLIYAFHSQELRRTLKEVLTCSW
Protocol: as §5, §6, §7, §8, §9, §10, §11

hMC4R [7] = target: T4, hMC4R (Homo sapiens, UniProt P32245); test: as above
T4 construct: expressed in transfected cells; host or cells: CHO-, L- or other eukaryotic cells
T4 sequence (P32245 whole entry): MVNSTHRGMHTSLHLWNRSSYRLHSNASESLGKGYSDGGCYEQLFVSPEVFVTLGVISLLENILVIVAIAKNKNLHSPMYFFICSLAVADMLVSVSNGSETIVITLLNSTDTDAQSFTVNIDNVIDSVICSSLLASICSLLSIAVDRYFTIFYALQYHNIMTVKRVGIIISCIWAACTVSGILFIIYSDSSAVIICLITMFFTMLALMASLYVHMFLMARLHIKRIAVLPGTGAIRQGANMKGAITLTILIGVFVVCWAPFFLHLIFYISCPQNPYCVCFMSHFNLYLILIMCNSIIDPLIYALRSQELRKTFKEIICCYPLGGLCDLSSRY
Protocol: as §5, §6, §7, §8, §9, §10, §11

ferrets [8] = test: MC4R associated emesis in ferrets, Compound A and Compound F (Table 2); format: in vivo, ferret; settings: Compound A (10 mg/kg); for % Emesis: ferrets; for # of Ferrets: ferrets with emesis/dosed
Protocol: FIG. 3. […] All food intake data were analyzed by two-tailed T-TEST.
as §1

hMC2R = target: T5, hMC2R (Homo sapiens, UniProt Q01718); test: cAMP functional assay (agonist); format: cell-based
T5 construct: expressed in transfected cells; host or cells: CHO-, L- or other eukaryotic cells
T5 sequence (Q01718 whole entry): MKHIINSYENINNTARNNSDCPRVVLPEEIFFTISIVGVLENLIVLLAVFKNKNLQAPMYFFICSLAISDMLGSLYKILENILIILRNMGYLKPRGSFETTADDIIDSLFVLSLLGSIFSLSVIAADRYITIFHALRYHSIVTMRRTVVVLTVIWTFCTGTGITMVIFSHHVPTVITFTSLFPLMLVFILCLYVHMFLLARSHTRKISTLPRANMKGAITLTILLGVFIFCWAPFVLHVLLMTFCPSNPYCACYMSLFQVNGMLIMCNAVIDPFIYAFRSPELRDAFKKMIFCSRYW
T5 sequence (Q8TCY5 whole entry partner): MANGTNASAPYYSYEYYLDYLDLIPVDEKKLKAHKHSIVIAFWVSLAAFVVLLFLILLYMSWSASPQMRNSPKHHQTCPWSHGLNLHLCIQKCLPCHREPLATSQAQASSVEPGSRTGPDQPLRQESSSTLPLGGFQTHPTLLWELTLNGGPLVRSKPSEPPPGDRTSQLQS
Protocol: as §2, §3, §4
(§12) cAMP detection assay (RPA556). The amount of cAMP production which resulted from an unknown compound was compared to that amount of cAMP produced in response to alpha-MSH which was defined as a 100% agonist. The EC50 is defined as the compound concentration which results in half maximal stimulation, when compared to its own maximal level of stimulation.

hMC1bR [9] = target: T3, hMC1bR; test: cAMP functional assay (agonist); format: cell-based
Protocol: as §2, §3, §4, §12

hMC4R [10] = target: T4, hMC4R; test: cAMP functional assay (agonist); format: cell-based
Protocol: as §2, §3, §4, §12

Compound: CC[C@H](NC(C)=O)c1cc(Cl)ccc1C1CCN(C(=O)[C@@H]2CN(C(C)(C)C)C[C@H]2c2ccc(F)cc2F)CC1 [Compound A]
- % Emesis (ferrets [1]; 1 hour): 31%
- % Emesis (ferrets [1]; 2 hours): 8%
- % Emesis (ferrets [1]; 4 hours): 69%
- % Emesis (ferrets [1]; Total, 60 mg/kg): 77%
- # of Ferrets (ferrets [1]; 1 hour): 4/13
- # of Ferrets (ferrets [1]; 2 hours): 1/13
- # of Ferrets (ferrets [1]; 4 hours): 9/13******
- # of Ferrets (ferrets [1]; Total): 10/13****
- EC50 (hMC5R [2]): 1400 nM
- EC50 (hMC3R [3]): 920 nM
- IC50 (hMC3R [4]): 7200 nM
- IC50 (hMC5R [5]): 1600 nM
- IC50 (hMC1bR [6]): 5600 nM
- Selectivity Binding IC50 1R/4R (hMC1bR [6]; IC50 hMC1bR / IC50 hMC4R): 127.27
- IC50 (hMC4R [7]): 44 nM
- % Emesis (ferrets [8]; 1 hour): 40%
- % Emesis (ferrets [8]; 2 hours): 40%
- % Emesis (ferrets [8]; 4 hours): 60%
- % Emesis (ferrets [8]; total): 100%
- # of Ferrets (ferrets [8]; 1 hour): 2/5**
- # of Ferrets (ferrets [8]; 2 hours): 2/5
- # of Ferrets (ferrets [8]; 4 hours): 5/5***
- # of Ferrets (ferrets [8]; total): 5/5*****
- EC50 (hMC2R): > 10000 nM
- EC50 (hMC1bR [9]): 1700 nM
- Selectivity cAMP EC50 1R/4R (hMC1bR [9]; EC50 hMC1bR / EC50 hMC4R): 121.43
- EC50 (hMC4R [10]): 14 nM
